The nature of data set [1]: Visual cytotoxicity scoring in HFF cells. Format: cell-based. The note with it: human, Table 1, at time of HCMV plaque enumeration, read-out: 50% Inhibitory Concentration Cytotoxicity HFF (visual). An excerpt:
Cytotoxicity produced in HFF and BSC-1 cells was estimated by visual scoring of cells not affected by virus infection in the HCMV and HSV-1 plaque reduction assays. Cytopathology was estimated at 35- and 60-fold magnification and scored on a zero to four plus basis. Wells were scored on the day of staining.
(§1) Dose-response relationships were used to compare drug effects. These were constructed by linearly regressing the percent inhibition of parameters derived in the preceding sections against log drug concentrations. The 50% inhibitory (I50) concentrations were calculated from the regression lines using the methods described by Goldstein. See Goldstein, A., Biostatistics: An Introductory Text, MacMillan, N.Y., 1964, pp. 156-161. Along with the I50 concentration for visual cytotoxicity, the averaged I50 concentrations are compared to I50 concentrations for inhibition for HCMV or HSV-1 replication. Compounds for which the ratio of cytotoxicity I50 concentrations to antiviral I50 concentrations (in vitro therapeutic index) were greater than 10, were considered for further study.

The next data set has as its system HCMV. The data set can be described thus: HCMV titer (yield) reduction assay. The note with it: Human betaherpesvirus 5; for IC90: Table 1, I90, HFF cells, read-out: HCMV Yield, 90% inhibitory concentration (I90). The format is cell-based.
Text: (§2) The 148 strain of HSV-1 was used in most experiments and was provided by Dr. T. W. Schafer of Schering corporation. The HF strain of HSV-1 was used in selected experiments and was obtained from Dr. G. H. Cohen, University of Pennsylvania. The Towne strain, plaque-purified isolate Po, of HCMV was a gift of Dr. Mark Stinski, University of Iowa.
HCMV was titered in 24-well cluster dishes which were planted to contain 5×10^4 cells/well, grown as described above. When the cells were 70 to 80% confluent, 0.2 ml of the virus suspension was added per wall and adsorbed as described above. At least three ten-fold dilutions of each preparation were used. Following virus adsorption, the cell sheets were overlayed with 0.5% methocel (4000 CPS) in maintenance medium [MEM(E) with 1.1 gm/liter NaHCO3, 100 units/ml penicillin G, 100 μg/ml streptomycin, and 5% fetal bovine serum]. The cultures were incubated in a humidified atmosphere of 4% CO2 -96% air. Viral foci were visible 5 to 7 days after infection using at least 10-fold magnification. Cells were fixed and stained by a 10-minute exposure to a 0.1% solution of crystal violet in 20% methanol 7 to 12 days after infection. Microscopic foci were enumerated at 20-fold magnification using a Nikon Profile Projector.
For titer reduction analysis, HFF cells were planted as described above in 24-well cluster dishes or in 25 cm^2 flasks. When monolayers were approximately 70% confluent, HCMV was added at a m.o.i. of 0.5 p.f.u. per cell and adsorbed as detailed above. Compounds dissolved in growth medium were added in one or one-half logarithm10 dilutions and incubation continued at 37° C. After 7 to 10 days of incubation, culture dishes or flasks were frozen at […] For titer determination, cells were thawed and then subjected to two more cycles of freezing and thawing at 37° C. Serial, one-logarithm10 dilutions of the final suspension were prepared and inoculated onto new cultures of HFF cells. Titer determination was as detailed above in part (1) (b).
as §1

Data set [2] concerns HSV-1. The data set can be described thus: HSV-1 plaque reduction assay, strain S148. The note with it: for IC50: Human alphaherpesvirus 1, Table 1, strain S148, BSC-1 cells, read-out: 50% Inhibitory Concentration HSV-1 Plaque. The format is cell-based, herpes simplex virus type 1 (strain S148) in BSC-1 cells.
Text: as §2
(§3) HSV-1 was titered using monolayer cultures of BSC-1 cells. Cells were planted at 3×10^5 cells/well using 6-well cluster dishes. MEM(E) supplemented with 10% fetal bovine serum was employed as medium. After 22-24 hours, cells were 90% confluent and were inoculated in triplicate using at least three ten-fold dilutions with 0.2 ml of the virus suspension to be assayed and incubated in a humidified 4% CO2 […] atmosphere for one hour to permit viral adsorption. Following virus adsorption, the cell sheet was overlayed with 5 ml of MEM(E) with 5% serum plus 0.5% methocel (4000 CPS) and incubated an additional two to three days. Cells were fixed and stained with 0.1% crystal violet in 20% methanol and macroscopic plaques enumerated.
(§4) Plaque reduction experiments were HSV-1 were performed using monolayer cultures of BSC-1 cells. The assay was performed exactly as described above except that the 0.2 ml virus suspension contained approximately 100 p.f.u. of HSV-1. Compounds to be tested were dissolved in the overlay medium at concentrations usually ranging from 0.1 to 100 μM in half-or-one logarithm10 dilutions. Titer reduction assays were performed by planting KB cells in 25 cm^2 plastic tissue culture flasks 10 to 24 hours prior to infection. At the onset of experiments, logarithmically growing replicate monolayer cultures were 60 to 80% confluent and contained 2.5 to 4.5×10^6 cells/flask. Medium was decanted and the cultures were infected with 2 to 10 p.f.u. of HSV-1 per cell. Virus was contained in 1.0 ml of VGM supplemented with 5% fetal bovine serum. After a 1 hour adsorption period at […], the cell sheet was rinsed twice with 2 ml of VGM without serum to remove unadsorbed virus and 5 ml of VGM containing drugs at three to five selected concentrations added in duplicate. Following an 18- to 22-hour incubation at 37° C., infected monolayers were treated with EDTA-trypsin to suspend the cells; aliquots were removed, subjected to three cycles of freezing and thawing, and stored at -76° C. for subsequent virus assay. Virus was titered on BSC-1 cells as described above.
as §1
A general note: In a plaque reduction assay, fewer plaques than in the control indicate reduced infectivity or spread.

Data set [3] concerns HSV-1. The data set can be described thus: HSV-1 titer (yield) reduction assay. The note with it: read-out: HSV-1 Yield, 90% inhibitory concentration (I90). Format: cell-based, herpes simplex virus type 1 in KB cells.
Text: as §2, §3, §4
Drug effects were calculated as a percentage of the reduction in virus titers in the presence of each drug concentration compared to the titer obtained in the absence of drug. Acylovir was used as a positive control in all experiments.
as §1

Where [4] appears, read: Human alphaherpesvirus 1, Table 1, I90, strain S148, KB cells.

Where two headings read alike, the source gives them in different places. A value given as a limit tells only on which side of the number the result lay.

With `Nc1ncnc2c1c(Cl)cn2COC(CO)CO` [UMJD 186, 4-amino-5-chloro-7-[(1,3-dihydroxy-2-propoxy)-methyl]pyrrolo[2,3-d]pyrimidine], the CC50 in data set [1] was greater than 100 µM. Further, in the data set on HCMV (FIG. 2, 10-fold higher concentration than UMJD 183 (10 μM)), the log reduction at 100 µM stood at 5. The IC90 with HCMV was found to be 8 µM; in the data set on HSV-1 [3] (setting [4]), 3.5 µM. In addition, the IC50 with HSV-1 [2] was 16 µM.

For the molecule `OCC(CO)OCn1cc(Br)c2c(NO)ncnc21` [UMJD 299, 4-hydroxylamino-5-bromo-7-[(1,3-dihydroxy-2-propoxy)methyl]pyrrolo[2,3-d]pyrimidine], the CC50 in data set [1] was greater than 100 µM. Besides, the IC90 in the data set on HCMV was 10 µM; in the data set with HSV-1 [3] (setting [4]) it was greater than 100 µM. For the same molecule, in the data set on HSV-1 [2], the IC50 came out at 2.9 µM.

`Nc1ncnc2c1c(Br)cn2COCCO` [UMJD 102, 4-Amino-5-bromo-7-(2-hydroxyethoxymethyl)pyrrolo[2,3-d]-pyrimidine]: in data set [1], the CC50 is 100 µM. The IC90 in the data set on HCMV stood at 13 µM. Moreover, in the data set on HSV-1 [2], the “activity against HSV-1 (in words)” value is given as “less potent activity” and the IC50 is 11 µM. Moreover, the IC90 in the data set on HSV-1 [3] (setting [4]) turned out to be 30 µM.

With `Nc1ncnc2c1c(Cl)cn2COCCO` [UMJD 100, 4-Amino-5-chloro-7-(2-hydroxyethoxymethyl)pyrrolo[2,3-d]-pyrimidine], in data set [1], the CC50 was greater than 100 µM. In the data set on HCMV, the IC90 came to 46 µM. Further, in the data set on HSV-1 [2], the “activity against HSV-1 (in words)” value was “less potent activity” and the IC50 was 77 µM. The IC90 in the data set with HSV-1 [3] (setting [4]) was 50 µM.

For the molecule `Nc1nc2c(ncn2COCCO)c(=O)[nH]1` [Acyclovir, reference compound], the CC50 in data set [1] was greater than 100 µM. For the same molecule, the IC90 with HCMV was 90 µM; in the data set on HSV-1 [3] (setting [4]), 7 µM. Moreover, the IC50 in the data set on HSV-1 [2] turned out to be 4 µM.

In the case of `Nc1nc(O)c2ncn(COC(CO)CO)c2n1` [Ganciclovir (DHPG), reference compound], the CC50 in data set [1] is greater than 100 µM. The IC90 in the data set with HCMV amounted to 1.8 µM; with HSV-1 [3] (Human alphaherpesvirus 1, KB), 1.2 µM. Moreover, the IC50 with HSV-1 [2] worked out at 4.5 µM.

Take `Nc1ncnc2c1c(Br)cn2COC(CO)CO` [UMJD 183, 4-amino-5-bromo-7-[(1,3-dihydroxy-2-propoxy)methyl]-pyrrolo[2,3-d]pyrimidine]: the CC50 in data set [1] is greater than 100 µM. The log reduction at 10 µM with HCMV (FIG. 2, 10 μM) was roughly 5. Also, the IC90 in the data set with HCMV is 1.9 µM; in the data set with HSV-1 [3] (setting [4]), 17 µM. Also, the IC50 in the data set with HSV-1 [2] came to 2 µM.

In the case of `Nc1ncnc2c1c(I)cn2COCCO` [UMJD 104, 4-Amino-5-iodo-7-(2-hydroxyethoxymethyl)pyrrolo[2,3-d]-pyrimidine], the CC50 in data set [1] was 100 µM. Also, the IC90 in the data set on HCMV amounted to 14 µM. Also, in the data set with HSV-1 [2], the “activity against HSV-1 (in words)” value is “less potent activity” and the IC50 amounted to 250 µM. Besides, in the data set with HSV-1 [3] (setting [4]), the IC90 is greater than 100 µM.

For the origin of these results see patent US4968686A, “Acyclic pyrrolo [2,3-d]pyrimidine analogs as antiviral agents” (The Regents of The University of Michigan, priority 1989, dated 1990).
